Laboratory results from patent US7462600B2, “Macrolides” (Pfizer Inc, priority 2004, dated 2008).
Values after ≈ are worked out from the molar mass of the structure shown. Like-named read-outs stand apart in the source and are kept apart here.

Tests used:
Format in all cases: cell-based
[1] = tested on: Streptococcus pyogenes 1079; test: MIC, microtiter broth dilution (NCCLS M100-S14), S. pyogenes 1079 (ermB)
Method in brief: (§1)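 NCCLS M100-S14 rules govern how the microdilution MICs are interpreted. Each compound starts as a 40 mg/ml solution in DMSO before dilution.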

[2] = tested on: Streptococcus pneumoniae 1016; test: MIC, microtiter broth dilution (NCCLS M100-S14), S. pneumoniae 1016 (susceptible)
Method in brief: as §1

[3] = tested on: Streptococcus pneumoniae 1095; conditions: microtiter broth dilution
Method in brief: as §1

[4] = tested on: Streptococcus pneumoniae 1175; conditions: microtiter broth dilution
Method in brief: as §1

[5] = tested on: Haemophilus influenzae 1218; test: MIC, microtiter broth dilution (NCCLS M100-S14), H. influenzae 1218 (susceptible)
Method in brief: as §1

[6] = S. pneumoniae 1016 (susceptible)
[7] = H. influenzae 1218 (susceptible)

| Structure (SMILES) | MIC S. pyogenes 1079 ([1]; S. pyogenes 1079 (ermB)) | MIC S. pneumo. 1016 [2, 6] | MIC S. pneumo. 1095 ([3]; S. pneumoniae 1095 (ermB)) | MIC S. pneumo. 1175 ([4]; S. pneumoniae 1175 (mefA)) | MIC H. influenzae 1218 [5, 7] | MIC S. pyogenes 1079 ([1]; Streptococcus pyogenes 1079) | MIC S. pneumo. 1016 ([2]; Streptococcus pneumoniae 1016) | MIC S. pneumo. 1095 ([3]; Streptococcus pneumoniae 1095) | MIC S. pneumo. 1175 ([4]; Streptococcus pneumoniae 1175) | MIC H. influenzae 1218 ([5]; Haemophilus influenzae 1218) |
| --- | --- | --- | --- | --- | --- | --- | --- | --- | --- | --- |
| CC[C@H]1OC(=O)[C@H](C)C(=O)[C@H](C)[C@@H](O[C@@H]2O[C@H](C)C[C@H](N(C)C)[C@H]2O)[C@](C)(OC)C[C@@H](C)C(=O)[C@H](C)[C@H]2N(CC3(O)CN(Cc4cccc5nc[nH]c45)C3)C(=O)O[C@]12C [7.08] | >64.00 µg/mL | <0.06 µg/mL | <0.06 µg/mL | 0.25 µg/mL (≈ 0.302 µM) | 0.25 µg/mL (≈ 0.302 µM) |  |  |  |  |  |
| CCC1OC(=O)C(C)C(=O)C(C)C(OC2OC(C)CC(N(C)C)C2O)C(C)(OC)CC(C)C(=O)C(C)C2N(CC3CN(C(=O)c4ccncc4)C3)C(=O)OC12C (stereo not shown) [4.05] |  |  |  |  |  | >64.00 µg/mL | 0.02 µg/mL (≈ 0.0254 µM) | 2 µg/mL (≈ 2.54 µM) | 1 µg/mL (≈ 1.27 µM) | 4 µg/mL (≈ 5.08 µM) |
| CCC1OC(=O)C(C)C(=O)C(C)C(OC2OC(C)CC(N(C)C)C2O)C(C)(OC)CC(C)C(=O)C(C)C2N(C3CN(C(=O)c4cccc(-n5nc(C)cc5C)c4)C3)C(=O)OC12C (stereo not shown) [Example 2.17, 3-(3,5-dimethyl-1H-pyrazol-1-yl)benzoyl] |  |  |  |  |  | >64.00 µg/mL | <0.06 µg/mL | >64.00 µg/mL | 0.25 µg/mL (≈ 0.289 µM) | >64.00 µg/mL |
| CCC1OC(=O)C(C)C(=O)C(C)C(OC2OC(C)CC(N(C)C)C2O)C(C)(OC)CC(C)C(=O)C(C)C2N(C3CN(Cc4n[nH]c5ccccc45)C3)C(=O)OC12C (stereo not shown) [Example 1.29, 3-descladinosyl-11,12-dideoxy-6-O-methyl-3-oxo-12,11-(oxycarbonyl-(1-((indazol-3-yl)-methyl)-azetidin-3-yl)-imino)-erythromycin A] |  |  |  |  |  | 2 µg/mL (≈ 2.51 µM) | <0.06 µg/mL | <0.06 µg/mL | 1 µg/mL (≈ 1.25 µM) | 0.5 µg/mL (≈ 0.627 µM) |
| CCC1OC(=O)C(C)C(=O)C(C)C(OC2OC(C)CC(N(C)C)C2O)C(C)(OC)CC(C)C(=O)C(C)C2N(C3CN(S(=O)(=O)c4ccc(F)cc4)C3)C(=O)OC12C (stereo not shown) [Example 3.09, 4-fluorobenzenesulfonyl] |  |  |  |  |  | 16 µg/mL (≈ 19.4 µM) | <0.06 µg/mL | <0.06 µg/mL | 0.25 µg/mL (≈ 0.303 µM) | 0.25 µg/mL (≈ 0.303 µM) |
| CCC1OC(=O)C(C)C(=O)C(C)C(OC2OC(C)CC(N(C)C)C2O)C(C)(OC)CC(C)C(=O)C(C)C2N(CC3CN(Cc4ccnc5ccccc45)C3)C(=O)OC12C (stereo not shown) [4.13] |  |  |  |  |  | 32 µg/mL (≈ 38.9 µM) | <0.06 µg/mL | 0.5 µg/mL (≈ 0.608 µM) | <0.06 µg/mL | 1 µg/mL (≈ 1.22 µM) |
| CC[C@H]1OC(=O)[C@H](C)C(=O)[C@H](C)[C@@H](O[C@@H]2O[C@H](C)C[C@H](N(C)C)[C@H]2O)[C@](C)(OC)C[C@@H](C)C(=O)[C@H](C)[C@H]2N(C3CN(C(C)c4ccnc5ccccc45)C3)C(=O)O[C@]12C (stereo partly shown) [Example 1.62, 3-descladinosyl-11,12-dideoxy-6-O-methyl-3-oxo-12,11-(oxycarbonyl-(1-(1-(quinolin-4-yl)-ethyl)-azetidin-3-yl)-imino)-erythromycin A] |  |  |  |  |  | 2 µg/mL (≈ 2.43 µM) | <0.06 µg/mL | <0.06 µg/mL | <0.06 µg/mL | 0.5 µg/mL (≈ 0.608 µM) |
| CCC1OC(=O)C(C)C(=O)C(C)C(OC2OC(C)CC(N(C)C)C2O)C(C)(OC)CC(C)C(=O)C(C)C2N(C3CN(S(=O)(=O)c4ccc(-c5ccn[nH]5)cc4)C3)C(=O)OC12C (stereo not shown) [Example 3.39, 3-descladinosyl-11,12-dideoxy-6-O-methyl-3-oxo-12,11-(oxycarbonyl-(1-(4-(1H-pyrazol-5-yl)benzenesulfonyl)-azetidin-3-yl)-imino)-erythromycin A] |  |  |  |  |  | 0.25 µg/mL (≈ 0.286 µM) | <0.06 µg/mL | <0.06 µg/mL | <0.06 µg/mL | 0.5 µg/mL (≈ 0.572 µM) |
| CCC1OC(=O)C(C)C(=O)C(C)C(OC2OC(C)CC(N(C)C)C2O)C(C)(OC)CC(C)C(=O)C(C)C2N(CC3CCCN3C(=O)c3nccc4ccccc34)C(=O)OC12C.O=CO (stereo not shown) [10.17] | >64.00 µg/mL | <0.06 µg/mL | <0.06 µg/mL | 0.12 µg/mL | 0.5 µg/mL |  |  |  |  |  |
| CCC1OC(=O)C(C)C(=O)C(C)C(OC2OC(C)CC(N(C)C)C2O)C(C)(OC)CC(C)C(=O)C(C)C2N(C3CCN(Cc4ccnc5ncccc45)C3)C(=O)OC12C [Example 9.05, 3-descladinosyl-11,12-dideoxy-6-O-methyl-3-oxo-12,11-(oxycarbonyl-(1-((1,8-naphthyridin-4-yl)-methyl)-(R)-pyrrolidin-3-yl)-imino)erythromycin A] | 8 µg/mL (≈ 9.71 µM) | <0.06 µg/mL | 0.5 µg/mL (≈ 0.607 µM) | 0.5 µg/mL (≈ 0.607 µM) | 8 µg/mL (≈ 9.71 µM) |  |  |  |  |  |
| CCOc1ccc(S(=O)(=O)N2CC(N3C(=O)OC4(C)C(CC)OC(=O)C(C)C(=O)C(C)C(OC5OC(C)CC(N(C)C)C5O)C(C)(OC)CC(C)C(=O)C(C)C34)C2)cc1OC (stereo not shown) [Example 3.105, 3-descladinosyl-11,12-dideoxy-6-O-methyl-3-oxo-12,11-(oxycarbonyl-(1-(4-ethoxy-3-methoxybenzene-1-sulfonyl)-azetidin-3-yl)-imino)-erythromycin A] |  |  |  |  |  | 1 µg/mL (≈ 1.13 µM) | <0.063 µg/mL | <0.063 µg/mL | <0.063 µg/mL | 0.25 µg/mL (≈ 0.283 µM) |
| CCC1OC(=O)C(C)C(=O)C(C)C(OC2OC(C)CC(N(C)C)C2O)C(C)(OC)CC(C)C(=O)C(C)C2N(C3CN(S(=O)(=O)c4ccc(N5CCOC5=O)cc4)C3)C(=O)OC12C (stereo not shown) [Example 3.115, 3-descladinosyl-11,12-dideoxy-6-O-methyl-3-oxo-12,11-(oxycarbonyl-(1-(4-(2-oxooxazolidin-3-yl)benzene-1-sulfonyl)-azetidin-3-yl)-imino)-erythromycin A] |  |  |  |  |  | 0.25 µg/mL (≈ 0.28 µM) | <0.063 µg/mL | <0.063 µg/mL | 0.125 µg/mL (≈ 0.14 µM) | 1 µg/mL (≈ 1.12 µM) |
| CCOc1cnc2ncccc2c1CN1CC(N2C(=O)OC3(C)C(CC)OC(=O)C(C)C(=O)C(C)C(OC4OC(C)CC(N(C)C)C4O)C(C)(OC)CC(C)C(=O)C(C)C23)C1 (stereo not shown) [Example 1.108, 3-descladinosyl-11,12-dideoxy-6-O-methyl-3-oxo-12,11-(oxycarbonyl-(1-(3-ethoxy-1,8-naphthyridine-4-methyl)-azetidin-3-yl)-imino)-erythromycin A] |  |  |  |  |  | 0.5 µg/mL (≈ 0.585 µM) | <0.063 µg/mL | <0.063 µg/mL | 0.125 µg/mL (≈ 0.146 µM) | 1 µg/mL (≈ 1.17 µM) |
| CCC1OC(=O)C(C)C(=O)C(C)C(OC2OC(C)CC(N(C)C)C2O)C(C)(OC)CC(C)C(=O)C(C)C2N(C3CN(S(=O)(=O)c4cn(C)c(C)n4)C3)C(=O)OC12C (stereo not shown) [Example 3.28] |  |  |  |  |  | >64.00 µg/mL | <0.06 µg/mL | <0.06 µg/mL | 4 µg/mL (≈ 4.84 µM) | 1 µg/mL (≈ 1.21 µM) |
| CCC1OC(=O)C(C)C(=O)C(C)C(OC2OC(C)CC(N(C)C)C2O)C(C)(OC)CC(C)C(=O)C(C)C2N(CC3CCN(Cc4c[nH]nn4)CC3)C(=O)OC12C (stereo not shown) [15.10] | >64.00 µg/mL | <0.06 µg/mL | >64.00 µg/mL | 8 µg/mL (≈ 10.1 µM) | 4 µg/mL (≈ 5.06 µM) |  |  |  |  |  |
| CCC1OC(=O)C(C)C(=O)C(C)C(OC2OC(C)CC(N(C)C)C2O)C(C)(OC)CC(C)C(=O)C(C)C2N(C3CN(S(=O)(=O)c4cccc(-c5ncno5)c4)C3)C(=O)OC12C (stereo not shown) [Example 3.59] |  |  |  |  |  | 64 µg/mL (≈ 73.1 µM) | <0.06 µg/mL | 8 µg/mL (≈ 9.13 µM) | 8 µg/mL (≈ 9.13 µM) | 16 µg/mL (≈ 18.3 µM) |
| CCC1OC(=O)C(C)C(=O)C(C)C(OC2OC(C)CC(N(C)C)C2O)C(C)(OC)CC(C)C(=O)C(C)C2N(CC3CN(C(=O)c4cc(F)ccc4F)C3)C(=O)OC12C (stereo not shown) [4.02] |  |  |  |  |  | 100 µg/mL (≈ 122 µM) | 0.01 µg/mL (≈ 0.0122 µM) | 0.5 µg/mL (≈ 0.608 µM) | 0.5 µg/mL (≈ 0.608 µM) | 3.12 µg/mL (≈ 3.8 µM) |
| CCC1OC(=O)C(C)C(=O)C(C)C(OC2OC(C)CC(N(C)C)C2O)C(C)(OC)CC(C)C(=O)C(C)C2N(C3CN(Cc4c[nH]nc4-c4ccc(F)cc4)C3)C(=O)OC12C (stereo not shown) [Example 1.42, (1H-3-[4-fluorophenyl]-pyrazol-4-yl)methyl] |  |  |  |  |  | >64.00 µg/mL | <0.06 µg/mL | <0.06 µg/mL | 0.25 µg/mL (≈ 0.297 µM) | 2 µg/mL (≈ 2.38 µM) |
| CCC1OC(=O)C(C)C(=O)C(C)C(OC2OC(C)CC(N(C)C)C2O)C(C)(OC)CC(C)C(=O)C(C)C2N(CC3CCN(Cc4cnc5ccccc5c4)CC3)C(=O)OC12C (stereo not shown) [15.03] | >64.00 µg/mL | <0.06 µg/mL | >64.00 µg/mL | 0.25 µg/mL (≈ 0.294 µM) | 8 µg/mL (≈ 9.4 µM) |  |  |  |  |  |
| CCC1OC(=O)C(C)C(=O)C(C)C(OC2OC(C)CC(N(C)C)C2O)C(C)(OC)CC(C)C(=O)C(C)C2N(C3CN(Cc4ccc5c(c4)CS(=O)(=O)C5)C3)C(=O)OC12C (stereo not shown) [Example 1.94] |  |  |  |  |  | 4 µg/mL (≈ 4.72 µM) | <0.063 µg/mL | 0.5 µg/mL (≈ 0.59 µM) | 0.25 µg/mL (≈ 0.295 µM) | 1 µg/mL (≈ 1.18 µM) |
